We go through ten molecules from patent US8124610B2, “Sodium channel inhibitors” (Icagen Inc., priority 2007, dated 2012).

Each structure is given as a SMILES string. Where only a bound is given, the exact number is not on record here.

In one test the target is T1, hSCN9A (Homo sapiens, UniProt Q15858).
T1 construct: expressed in transfected cells
Put plainly: Whole-cell patch-clamp electrophysiology (conventional or PatchXpress), HEK cells expressing hSCN9A, estimated IC-50. In kind it is cell-based. The following applies: estimated IC-50, HEK cells expressing hSCN9A; class symbols or bounds; read-out: SCN9A EIC-50. An outline of the steps:
(§1)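 Stably transfected HEK cells recorded by whole-cell voltage clamp (manual or PatchXpress) at 22–24 °C in pH 7.4 HEPES-buffered extracellular solution. Cells held at the empirically determined inactivation V1/2 after an 8 s prepulse, then stepped to 0 mV for 20 ms; % inhibition from current amplitude before vs after compound.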

Another test deals with T2, hSCN3A (Homo sapiens, UniProt Q9NY46).
T2 construct: expressed in transfected cells
T2 sequence (Q9NY46 whole entry): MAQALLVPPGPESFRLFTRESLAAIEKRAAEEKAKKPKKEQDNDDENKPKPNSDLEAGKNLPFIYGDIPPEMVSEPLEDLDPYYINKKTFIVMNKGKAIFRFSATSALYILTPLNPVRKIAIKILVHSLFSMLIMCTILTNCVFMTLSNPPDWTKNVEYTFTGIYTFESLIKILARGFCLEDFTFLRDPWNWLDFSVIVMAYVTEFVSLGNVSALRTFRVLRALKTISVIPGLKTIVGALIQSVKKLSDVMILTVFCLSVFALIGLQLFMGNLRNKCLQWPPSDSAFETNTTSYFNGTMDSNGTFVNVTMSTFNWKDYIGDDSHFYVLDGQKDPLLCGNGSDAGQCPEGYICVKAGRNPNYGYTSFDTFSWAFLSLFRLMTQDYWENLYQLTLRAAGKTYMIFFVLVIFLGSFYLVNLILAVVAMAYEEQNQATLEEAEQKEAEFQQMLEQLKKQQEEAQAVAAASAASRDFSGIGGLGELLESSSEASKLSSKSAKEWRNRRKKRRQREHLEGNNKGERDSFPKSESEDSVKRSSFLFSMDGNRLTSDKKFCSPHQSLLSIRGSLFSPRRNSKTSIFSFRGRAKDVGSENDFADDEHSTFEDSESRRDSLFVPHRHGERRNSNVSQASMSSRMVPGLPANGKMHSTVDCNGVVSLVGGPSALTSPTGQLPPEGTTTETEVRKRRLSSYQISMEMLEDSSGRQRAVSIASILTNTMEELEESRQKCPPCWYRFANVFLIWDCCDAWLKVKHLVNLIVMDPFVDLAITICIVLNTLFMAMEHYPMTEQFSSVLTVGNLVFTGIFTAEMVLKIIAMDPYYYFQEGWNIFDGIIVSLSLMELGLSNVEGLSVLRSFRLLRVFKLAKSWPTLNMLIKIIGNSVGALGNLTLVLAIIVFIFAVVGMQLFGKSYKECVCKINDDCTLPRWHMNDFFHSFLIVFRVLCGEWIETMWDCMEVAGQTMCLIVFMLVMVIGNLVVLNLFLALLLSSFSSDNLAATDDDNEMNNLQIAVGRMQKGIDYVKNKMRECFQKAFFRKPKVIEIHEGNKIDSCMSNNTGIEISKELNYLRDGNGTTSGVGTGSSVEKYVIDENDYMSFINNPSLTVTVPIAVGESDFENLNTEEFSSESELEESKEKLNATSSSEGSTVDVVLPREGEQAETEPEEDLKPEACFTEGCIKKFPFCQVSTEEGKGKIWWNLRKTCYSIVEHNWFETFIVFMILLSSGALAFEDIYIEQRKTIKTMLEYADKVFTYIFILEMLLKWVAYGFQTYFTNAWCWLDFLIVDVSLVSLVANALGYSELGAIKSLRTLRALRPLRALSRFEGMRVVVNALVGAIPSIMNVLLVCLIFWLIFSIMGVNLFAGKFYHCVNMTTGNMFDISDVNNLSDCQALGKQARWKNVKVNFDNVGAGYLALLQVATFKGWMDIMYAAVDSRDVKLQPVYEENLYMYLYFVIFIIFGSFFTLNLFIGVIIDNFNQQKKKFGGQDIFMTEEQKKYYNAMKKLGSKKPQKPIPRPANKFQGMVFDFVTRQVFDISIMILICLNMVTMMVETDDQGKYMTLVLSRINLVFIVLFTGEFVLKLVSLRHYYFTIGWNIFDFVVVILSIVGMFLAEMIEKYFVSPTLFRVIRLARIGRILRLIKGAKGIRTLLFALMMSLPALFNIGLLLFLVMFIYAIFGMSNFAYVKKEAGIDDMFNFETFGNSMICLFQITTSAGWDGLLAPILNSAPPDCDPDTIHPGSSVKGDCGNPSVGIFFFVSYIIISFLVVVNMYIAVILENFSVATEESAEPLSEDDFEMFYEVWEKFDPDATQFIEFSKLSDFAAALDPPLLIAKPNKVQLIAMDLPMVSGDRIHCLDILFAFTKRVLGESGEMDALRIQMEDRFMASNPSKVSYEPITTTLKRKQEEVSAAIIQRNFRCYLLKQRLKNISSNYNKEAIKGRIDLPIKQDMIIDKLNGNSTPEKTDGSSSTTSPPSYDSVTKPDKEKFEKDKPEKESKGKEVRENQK
Put plainly: Whole-cell patch-clamp electrophysiology (conventional or PatchXpress), HEK cells expressing hSCN3A, estimated IC-50. Format: cell-based. The following applies: estimated IC-50, HEK cells expressing hSCN3A; class symbols or bounds; read-out: SCN3A EIC-50. Summed up:
as §1

Another test has as its target Nav1.1 (Homo sapiens, UniProt P35498). The following applies: read-out: TTX IC-50; cited from earlier work.
The next test has as its target Nav1.9 (Homo sapiens, UniProt Q9UI33). The following applies: read-out: TTX IC-50; cited from earlier work.
The target of another test is Nav1.6 (Homo sapiens, UniProt Q9UQD0). Particulars: read-out: TTX IC-50; cited from earlier work.
The target of another test is Nav1.3 (Homo sapiens, UniProt Q9NY46). Particulars: read-out: TTX IC-50; cited from earlier work.
Nav1.3, sequence (Q9NY46 whole entry, looked up): as the sequence (Q9NY46 whole entry) above
A further test addresses Nav1.8 (Homo sapiens, UniProt Q9Y5Y9). Particulars: read-out: TTX IC-50; cited from earlier work.
The next test addresses Nav1.2 (Homo sapiens, UniProt Q99250). Particulars: read-out: TTX IC-50; cited from earlier work.
For test [1] the following is noted: cited from earlier work.

T1 sequence (Q15858 whole entry): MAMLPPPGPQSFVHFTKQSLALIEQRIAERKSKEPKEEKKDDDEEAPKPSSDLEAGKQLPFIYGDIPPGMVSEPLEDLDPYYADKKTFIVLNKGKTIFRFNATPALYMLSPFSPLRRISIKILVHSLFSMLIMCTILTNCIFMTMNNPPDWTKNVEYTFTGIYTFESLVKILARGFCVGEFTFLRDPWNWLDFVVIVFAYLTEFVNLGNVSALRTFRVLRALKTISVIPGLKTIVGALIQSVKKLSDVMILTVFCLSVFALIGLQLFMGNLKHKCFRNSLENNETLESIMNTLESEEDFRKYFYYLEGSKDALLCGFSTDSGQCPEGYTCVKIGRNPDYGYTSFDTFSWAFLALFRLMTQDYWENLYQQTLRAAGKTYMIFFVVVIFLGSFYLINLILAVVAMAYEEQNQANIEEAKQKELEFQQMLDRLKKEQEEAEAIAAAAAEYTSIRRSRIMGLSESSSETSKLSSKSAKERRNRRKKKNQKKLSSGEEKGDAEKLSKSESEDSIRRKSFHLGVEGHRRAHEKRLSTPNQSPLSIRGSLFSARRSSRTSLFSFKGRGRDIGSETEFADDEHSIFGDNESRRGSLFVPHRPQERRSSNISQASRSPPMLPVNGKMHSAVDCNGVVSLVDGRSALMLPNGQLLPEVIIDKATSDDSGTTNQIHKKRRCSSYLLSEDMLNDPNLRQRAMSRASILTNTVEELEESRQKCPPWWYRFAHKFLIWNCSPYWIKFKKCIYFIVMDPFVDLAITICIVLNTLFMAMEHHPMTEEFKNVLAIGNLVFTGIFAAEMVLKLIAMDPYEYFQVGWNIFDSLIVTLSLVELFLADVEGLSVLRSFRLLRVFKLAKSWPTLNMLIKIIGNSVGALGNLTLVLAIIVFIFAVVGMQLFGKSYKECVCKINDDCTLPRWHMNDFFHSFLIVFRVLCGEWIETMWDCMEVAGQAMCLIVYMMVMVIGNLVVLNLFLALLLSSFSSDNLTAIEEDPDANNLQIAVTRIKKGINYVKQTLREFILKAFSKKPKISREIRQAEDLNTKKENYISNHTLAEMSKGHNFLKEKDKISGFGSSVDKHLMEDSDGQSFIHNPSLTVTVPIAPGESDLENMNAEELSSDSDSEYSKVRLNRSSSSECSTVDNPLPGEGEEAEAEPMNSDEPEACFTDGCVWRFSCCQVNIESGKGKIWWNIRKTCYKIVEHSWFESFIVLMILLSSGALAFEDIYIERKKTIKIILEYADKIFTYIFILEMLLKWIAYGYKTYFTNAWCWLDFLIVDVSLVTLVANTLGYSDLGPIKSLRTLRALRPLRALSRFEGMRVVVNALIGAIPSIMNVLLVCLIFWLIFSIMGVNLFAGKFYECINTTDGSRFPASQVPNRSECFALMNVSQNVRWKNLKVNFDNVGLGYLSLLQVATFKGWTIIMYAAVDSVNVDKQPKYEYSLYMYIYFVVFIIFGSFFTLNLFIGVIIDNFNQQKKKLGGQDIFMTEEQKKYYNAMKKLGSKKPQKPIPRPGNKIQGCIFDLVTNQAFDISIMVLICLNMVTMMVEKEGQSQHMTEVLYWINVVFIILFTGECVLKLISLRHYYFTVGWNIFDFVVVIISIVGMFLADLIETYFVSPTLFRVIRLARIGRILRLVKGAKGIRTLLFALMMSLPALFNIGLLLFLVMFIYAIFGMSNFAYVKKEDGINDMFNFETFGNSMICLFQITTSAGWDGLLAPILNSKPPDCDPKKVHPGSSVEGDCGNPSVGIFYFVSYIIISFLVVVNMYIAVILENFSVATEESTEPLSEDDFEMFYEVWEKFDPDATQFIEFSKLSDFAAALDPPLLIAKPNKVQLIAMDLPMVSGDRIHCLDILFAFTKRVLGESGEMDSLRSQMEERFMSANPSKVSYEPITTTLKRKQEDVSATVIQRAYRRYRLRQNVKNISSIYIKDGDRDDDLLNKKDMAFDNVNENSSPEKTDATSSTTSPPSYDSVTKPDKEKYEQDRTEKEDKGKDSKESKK

As to `Cc1cc(Nc2ccc(S(=O)(=O)Nc3ncc(C#N)s3)c(F)c2)n(-c2ccccc2)n1` [Compound 245, N-(5-cyanothiazol-2-yl)-2-fluoro-4-(3-methyl-1-phenyl-1H-pyrazol-5-ylamino)benzenesulfonamide], the IC50 on hSCN9A is over 1000 nM; at hSCN3A, 2000 to 10000 nM.
For `O=S(=O)(Nc1nccs1)c1ccc(Nc2ccn(Cc3ccc(Cl)cc3)n2)cc1Cl` [Compound 263, 2-chloro-4-(1-(4-chlorobenzyl)-1H-pyrazol-3-ylamino)-N-(thiazol-2-yl)benzenesulfonamide] the same measures were under 2000 nM and under 2000 nM.
For `N#Cc1cc(Nc2ccn(Cc3ccc(Cl)cc3)n2)ccc1S(=O)(=O)Nc1nccs1` [Compound 264, 4-(1-(4-chlorobenzyl)-1H-pyrazol-3-ylamino)-2-cyano-N-(thiazol-2-yl)benzenesulfonamide] the same measures were under 2000 nM and under 2000 nM.
For `O=S(=O)(Nc1nccs1)c1ccc(Nc2ccn(Cc3ccc(Cl)cc3)n2)cc1OC(F)(F)F` [Compound 266, 4-(1-(4-chlorobenzyl)-1H-pyrazol-3-ylamino)-N-(thiazol-2-yl)-2-(trifluoromethoxy)benzenesulfonamide], the IC50 at hSCN9A was over 1000 nM; at hSCN3A, 2000 to 10000 nM.
Regarding `Cc1cc(S(=O)(=O)Nc2nccs2)c(F)cc1Nc1ccn(Cc2ccc(Cl)cc2)n1` [Compound 269, 4-(1-(4-chlorobenzyl)-1H-pyrazol-3-ylamino)-2-fluoro-5-methyl-N-(thiazol-2-yl)benzenesulfonamide], the IC50 at hSCN9A and at hSCN3A was under 2000 nM in each case.
Turning to `COc1ccc(C(=O)Cn2ncc3cc(S(=O)(=O)Nc4nccs4)ccc32)c(OC)c1` [Compound 276, 1-(2-(2,4-dimethoxyphenyl)-2-oxoethyl)-N-(thiazol-2-yl)-1H-indazole-5-sulfonamide], the IC50 was over 1000 nM at hSCN9A and under 2000 nM at hSCN3A.
The corresponding values for `COc1ccc(C(=O)Cn2cc3cc(S(=O)(=O)Nc4nccs4)ccc3n2)c(OC)c1` [Compound 277, 2-(2-(2,4-dimethoxyphenyl)-2-oxoethyl)-N-(thiazol-2-yl)-2H-indazole-5-sulfonamide] are under 2000 nM and over 1000 nM.
For `O=C(Cn1ncc2cc(S(=O)(=O)Nc3nccs3)ccc21)c1ccc(F)cc1` [Compound 280, 1-(2-(4-fluorophenyl)-2-oxoethyl)-N-(thiazol-2-yl)-1H-indazole-5-sulfonamide] the same measures were 2000 to 10000 nM and 2000 to 10000 nM.
For `NC1=N[C@H](O)[C@H]2[C@H]3O[C@]4(O)O[C@@H]([C@@H](O)[C@@]2(N1)[C@@H]4O)[C@]3(O)CO` [TTX, tetrodotoxin], the IC50 on Nav1.1 is 10 nM; at Nav1.9 it was 1000 nM; at Nav1.6 it was 6 nM; at Nav1.3 it was 15 nM; on Nav1.8 it was 50000 nM; at Nav1.2, 10 nM.
With `NCC1(CC(=O)O)CCCCC1` [gabapentin], the “patients that respond to gabapentin treatment for neuropathic pain” value in test [1] is 30%.
